Entries after “also recorded” stand apart in the source; their conditions may differ. Blank lines part the entries; values can stand above or below the molecule they belong to. Ends that are not written are not given here.
Assays:
[1] = test system: 561 antibody; assay: Chemical reagents as enhancers of peptide-dependent release of CD34+ cells from the 561 antibody (FACS assay); format: cell-based
Method: The ability of chemical reagents to enhance peptide-dependant release of captured CD34+ cells from the 561 antibody was examined. […] Since long-term viability of the low pH-released cells was not known, conditions which could alter the pH to a more neutral value (about pH5-7) were desirable.
Reagents which were known to affect electrostatic and hydrogen bonding interactions of proteins were tested in addition to excluded-volume polymers. Included in these studies were sodium chloride, sodium acetate, magnesium chloride, calcium chloride, polyethylene glycol (PEG), ficoll, sodium succinate, sodium citrate, protamine sulphate, spermine, and polybrene.

[2] = test system: 561 antibody; assay: KG1a or tHL60 cell-based FACS assay: release of prebound 561 antibody; format: binding
Excerpt: Five peptides representing hexapeptides selected from biopannings were synthesized and tested for their ability to serve as release agents in the KG1a or tHL60 cell-based FACS assay.
The peptides (see Table 27 below) were synthesized by Research Genetics and tested without purification. The 9069 antibody was used as a positive control and released with the 9069N peptide (Ac-Q Q G W F P-K D) (SEQ ID NO:9). This control served to test for the KG1a cells and the goat-anti-mouse FITC secondary detection antibody. Hexapeptide sequences identified for the 561 antibody were tested for their ability to displace prebound 561 antibody.
HPLC-purified peptides 561C and D were tested in the cell-based KG1a FACS assay.
Functional release activity of purified 561D peptide at pH 4 and 6 was tested.
Functional release activity of purified 561C and 561D peptides at pH 4, 5, 6, 7, 8, and 9 was tested.
Functional release activity of crude 561A,B,C,D, M, P, Q, CDR2H, CDR2L, CDR3H, CDR3L, 34B, 34C,34D,34E and 34F peptides adjusted to pH 7 and pH unadjusted (~pH3.8-4.3) was tested.

[3] = test system: anti-CD34 antibody, 9069; assay: KG1a cell FACS assay: release by peptides of 9069 antibody prebound to cells; format: binding, mouse; conditions: peptide added to KG1a cells with prebound 9069; 10^5 to 10^6 molar excess, 30 min, room temperature
Method: These experiments were performed following a similar procedure to the binding experiments except that the anti-CD34 antibody, 9069, was incubated with KG1a cells first, followed by addition of peptide. The experimental outline is schematically shown below:
KG1a Cell Assay to Test for Release by Peptides of 9069 Antibody Bound to Cells.
Anti-CD34 antibody, 9069 (0.i microgram) was incubated with KG1a cells (10^6) for 30 minutes at room temperature (about 22° C.). Molar excesses of 10^5 to 10^6 times the amount of peptide to antibody were tested for the ability to displace the prebound antibody. Peptides were incubated with the antibody-cell complexes for 30 minutes at room temperature (approximately 22° C.). Remaining bound antibody was detected using the FITC-goat anti-mouse IgG reagent described in Example 3.
Analysis of the variant peptide, 9069Q2, was done in parallel with the 9069N peptide. This analysis provides quality control information on reagents including the antibody, 9069, and the cells, KG1a. FACScan assays included a negative control of KG1a cells alone and positive control samples of KG1a cells with the 9069 antibody bound and detected with a secondary antibody, goat-anti-mouse IgG-FITC.

[4] = test system: CD34+ cells; assay: CD34+ cell isolation on automated cell separation apparatus, then culture with cytokines; format: cell-based, human
Method: CD34+ cells were also isolated from human mobilized peripheral blood using the automated cell separation apparatus described in U.S. Pat. No. 5,536,475 and the method essentially as described in WO 95/24969 Both U.S. Pat. No. 5,536,475 and WO 95/24969 are herein expressly incorporated by reference. Chymopapain was used as the control releasing agent, and 25 mg of the peptide 9069N (Table 11) was used as the test releasing agent.

[5] = test system: CD34 cells; assay: Stem cell selection with 9069 antibody, sheep-anti-mouse beads and releasing agent; format: cell-based, human; conditions: chymopapain release
[6] = Solubilization of peptides in DPBS plus 1% HSA; format: physicochemical
Excerpt: 9079A-G peptides were solubilized in Dulbecco's phosphate buffered saline (DPBS) plus 1% HSA.

[7] = crude peptide, pH unadjusted (around pH 3.8-4.3; low pH ~4)
[8] = Table 7, mobilized peripheral blood (5.86% CD34 start)
[9] = Table 10, mobilized peripheral blood (0.68% CD34 start)

Molecule: [Cl-].[Cl-].[Mg+2] [magnesium chlordie, magnesium chloride]
enhancement of peptide mediated release of CD34+ selected cells [1]: Less dramatic results

Molecule: CC(=O)[O-].[Na+] [sodium acetate]
enhancement of peptide mediated release of CD34+ selected cells [1]: significant activity as an enhancement reagent

Molecule: A C K W C R (ACKWCR) [Peptide 561M]
release activity on prebound 561 antibody ([2]; crude peptide, pH 7): none of these peptides showed release activity; also recorded: did not show release activity
release activity on prebound 561 antibody [2, 7]: showed functional release activity; also recorded: showed significant release activity
release of 561 antibody prebound to KG1a or tHL60 cells (in words) ([2]; crude peptides, pH not stated): able to release 561 antibody prebound to KG1a or tHL60 cells
release activity on prebound 561 antibody ([2]; pH 6): did not show release activity

Molecule: A D G A-L I S Q V S-Q A K D (ADGALISQVSQAKD) [Peptide 9069C]
% Inhibition of Binding [3]: 32%

Molecule: A I Y P G D G D T R Y T Q K F V V (AIYPGDGDTRYTQKFVV) [Peptide 561CDR2H]
release activity on prebound 561 antibody ([2]; crude peptide, pH 7): none of these peptides showed release activity; also recorded: did not show release activity
release activity on prebound 561 antibody [2, 7]: showed functional release activity; also recorded: showed significant release activity
release activity on prebound 561 antibody ([2]; pH 6): did not show release activity

Molecule: Chymopapain
purity of the positively selected CD34+ cells ([4]; mobilized peripheral blood, 25 mg peptide 9069N or chymopapain control): greater than 90%
expansion in cell number ([4]; released CD34+ cells of first experiment, culture with cytokines for 12 days): 68 fold
% CD34 CELLS Negative Fraction [5, 8]: 2.5%
% CD34 CELLS Positive Fraction [5, 8]: 94%
% Capture [5, 8]: 62%
% CD34 CELLS Negative Fraction ([5]; Table 8, mobilized peripheral blood (1.05% CD34 start)): 0.16%
% CD34 CELLS Negative Fraction ([5]; Table 9, bone marrow (3.66% CD34 start)): 0.34%
% CD34 CELLS Negative Fraction [5, 9]: 0.12%
% Yield [5, 9]: 68%

Molecule: PGSPLGKD [Peptide 9079A, PGSPLG--KD]
solubility [6]: solubilized

The next lines start with the values.

solubility [6]: solubilized
Molecule: IQEFGVKD [Peptide 9079F, IQEFGV--KD]

solubility [6]: solubilized
Molecule: KDVYSLWPKD [Peptide 9079H, KD--VYSLWP--KD]

solubility [6]: solubilized
Molecule: NLQGEFKD [Peptide 9079D, NLQGEF--KD]

solubility [6]: solubilized
Molecule: QYTQPKD [Peptide 9079C, QYTQPK--D]

solubility [6]: insoluble
Molecule: RSFYYRD [Peptide 9079E, RSFYYR--D]

solubility [6]: solubilized
Molecule: YSRLGFKD [Peptide 9079B, YSRLGF--KD]
